Assay results as given in US9776990B2, “Isoindolone derivatives” (AbbVie Inc., priority 2012, dated 2017).

Columns and labels:
BRD4 (BDI_K57-E168) = BRD4 (BDI_K57-E168) (Homo sapiens (Human), UniProt O60885); assay: TR-FRET bromodomain binding assay, BRD4 first bromodomain; settings: His-tagged BD1, 100 nM Alexa647 probe
Description: (§1) A time-resolved fluorescence resonance energy transfer (TR-FRET) assay was used to determine the affinities of compounds of the Examples listed in Table 1 for each bromodomain of BRD4. His-tagged first (BD1: amino acids K57-E168) and second (BD2: amino acids E352-E168) bromodomains of BRD4 were expressed and purified. An Alexa647-labeled BET-inhibitor was used as the fluorescent probe in the assay.
(§2) Compound dilution series were prepared in DMSO via a 3-fold serial dilution from 2.5 mM to 42 nM. Compounds were then diluted 6:100 in assay buffer (20 mM Sodium Phosphate, pH 6.0, 50 mM NaCl, 1 mM EDTA, 0.01% Triton X-100, 1 mM DTT) to yield 3× working solutions. Six microliters (μL) of the working solution was then transferred to white, low-volume assay plates (Costar #3673). A 1.5× assay mixture containing His-tagged bromodomain, Europium-conjugated anti-His antibody (Invitrogen PV5596) and the Alexa-647-conjugated probe molecule was also prepared. Twelve μL of this solution were added to the assay plate to reach a final volume of 18 μL. The final concentration of 1× assay buffer contains 2% DMSO, 50 μM−0.85 nM compound, 8 nM bromodomain, 1 nM antibody and 100 or 30 nM probe (for BDI or BDII, respectively). After a one-hour incubation at room temperature, TR-FRET ratios were determined using an Envision multilabel plate reader (Ex 340, Em 495/520).
(§3) TR-FRET data were normalized to the means of 24 no-compound controls (“high”) and 8 controls containing 1 μM un-labeled probe (“low”). Percent inhibition was plotted as a function of compound concentration and the data were fit with the 4 parameter logistic equation to obtain IC50s Inhibition constants (Ki) were calculated from the IC50s, probe Kd and probe concentration. Typical Z′ values were between 0.65 and 0.75. The minimum significant ratio was determined to evaluate assay reproducibility (Eastwood et al., (2006) J Biomol Screen, 11: 253-261). The MSR was determined to be 2.03 for BDI and 1.93 for BDII, and a moving MSR (last six run MSR overtime) for both BDI and BDII was typically <3.

BRD4 (BDII_E352-M457) = BRD4 (BDII_E352-M457) (Homo sapiens (Human), UniProt O60885); assay: TR-FRET bromodomain binding assay, BRD4 second bromodomain; settings: His-tagged BD2, 30 nM Alexa647 probe
Description: as §1, §2, §3

| Compound | Ki (BRD4 (BDI_K57-E168)) [µM] | Ki (BRD4 (BDII_E352-M457)) [µM] |
| --- | --- | --- |
| Cc1[nH]c(-c2ccc3c(c2)OCO3)c2c1C(=O)CC(C)(C)C2 [Example 58, 1-(1,3-benzodioxol-5-yl)-3,6,6-trimethyl-2,5,6,7-tetrahydro-4H-isoindol-4-one] | 0.932 | 0.513 |
| Cc1[nH]c(-c2ccccc2Cl)c2c1C(=O)CCC2 [Example 15, 1-(2-chlorophenyl)-3-methyl-2,5,6,7-tetrahydro-4H-isoindol-4-one] | 1.14 | 22.2 |
| Cc1[nH]c(-c2ccccc2OCc2ccc3[nH]ncc3c2)c2c1C(=O)CCC2 [Example 38, 1-[2-(1H-indazol-5-ylmethoxy)phenyl]-3-methyl-2,5,6,7-tetrahydro-4H-isoindol-4-one] | 4.88 | 4.86 |
| 3-methyl-6-(2-methylpropyl)-1-(2-phenoxyphenyl)-2,5,6,7-tetrahydro-4H-isoindol-4-one [Example 68] | 3.62 | 22.2 |
| Cc1[nH]c(-c2ccccc2Oc2ccccc2)c2c1C(=O)CC(C(C)C)C2 (centres unmarked) [Example 70, 3-methyl-1-(2-phenoxyphenyl)-6-(propan-2-yl)-2,5,6,7-tetrahydro-4H-isoindol-4-one] | 1.2 | 2.22 |
| Cc1[nH]c(-c2ccccc2)c2c1C(=O)CC(C)(C)C2 [Example 59, 3,6,6-trimethyl-1-phenyl-2,5,6,7-tetrahydro-4H-isoindol-4-one] | 3.23 | 2.52 |
| Cc1cc(C)cc(-c2[nH]c(C)c3c2CCCC3=O)c1 [Example 17, 1-(3,5-dimethylphenyl)-3-methyl-2,5,6,7-tetrahydro-4H-isoindol-4-one] | 5.51 | 17.5 |
| Cc1[nH]c(-c2ccccc2COc2cccc(C(F)(F)F)c2)c2c1C(=O)CCC2 [Example 23, 3-methyl-1-(2-{[3-(trifluoromethyl)phenoxy]methyl}phenyl)-2,5,6,7-tetrahydro-4H-isoindol-4-one] | 9.09 | 8.92 |
| Cc1[nH]c(-c2ccccc2-c2ccco2)c2c1C(=O)CCC2 [Example 27, 1-[2-(furan-2-yl)phenyl]-3-methyl-2,5,6,7-tetrahydro-4H-isoindol-4-one] | 2.76 | 6.58 |
| Cc1[nH]c(-c2cc(N)ccc2Oc2ccccc2)c2c1C(=O)CC(C)C2 (centres unmarked) [Example 66, 1-(5-amino-2-phenoxyphenyl)-3,6-dimethyl-2,5,6,7-tetrahydro-4H-isoindol-4-one] | 0.058 | 0.069 |
| Cc1ccc(-c2[nH]c(C)c3c2CCCC3=O)cc1 [Example 4, 3-methyl-1-(4-methylphenyl)-2,5,6,7-tetrahydro-4H-isoindol-4-one] | 2.49 | 15.9 |
| Cc1ccccc1OCc1ccccc1-c1[nH]c(C)c2c1CCCC2=O [Example 25, 3-methyl-1-{2-[(2-methylphenoxy)methyl]phenyl}-2,5,6,7-tetrahydro-4H-isoindol-4-one] | 4.24 | 15.1 |
| COc1ccc(-c2[nH]c(C)c3c2CCCC3=O)cc1 [Example 11, 1-(4-methoxyphenyl)-3-methyl-2,5,6,7-tetrahydro-4H-isoindol-4-one] | 1.88 | 5.46 |
| Cc1[nH]c(-c2ccccc2N)c2c1C(=O)CCC2 [Example 3, 1-(2-aminophenyl)-3-methyl-2,5,6,7-tetrahydro-4H-isoindol-4-one] | 3.73 | 15 |
| Cc1[nH]c(-c2cc(S(C)(=O)=O)ccc2OCC2CC2)c2c1C(=O)CCC2 [Example 73, 1-[2-(cyclopropylmethoxy)-5-(methylsulfonyl)phenyl]-3-methyl-2,5,6,7-tetrahydro-4H-isoindol-4-one] | 0.034 | 0.461 |
| Cc1[nH]c(-c2cc(C(=O)O)ccc2Oc2ccccc2)c2c1C(=O)CCC2 [Example 54, 3-(3-methyl-4-oxo-4,5,6,7-tetrahydro-2H-isoindol-1-yl)-4-phenoxybenzoic Acid] | 0.045 | 0.289 |
| Cc1[nH]c(-c2ccccc2Oc2ccccc2)c2c1C(=O)CC(C)(C)C2 [Example 63, 3,6,6-trimethyl-1-(2-phenoxyphenyl)-2,5,6,7-tetrahydro-4H-isoindol-4-one] | 0.786 | 1.03 |

| Compound | Ki (BRD4 (BDI_K57-E168)) [µM] | Ki (BRD4 (BDII_E352-M457)) [µM] |
| --- | --- | --- |
| Cc1[nH]c(-c2cccc(OCc3ccccc3)c2)c2c1C(=O)CCC2 [Example 14, 1-[3-(benzyloxy)phenyl]-3-methyl-2,5,6,7-tetrahydro-4H-isoindol-4-one] | 9.06 | 22.2 |
| Cc1ccc(C)c(-c2[nH]c(C)c3c2CC(C)(C)CC3=O)c1 [Example 60, 1-(2,5-dimethylphenyl)-3,6,6-trimethyl-2,5,6,7-tetrahydro-4H-isoindol-4-one] | 3.37 | 2.7 |
| Cc1[nH]c(-c2cc(C(=O)Nc3nccs3)ccc2Oc2ccccc2)c2c1C(=O)CCC2 [Example 57, 3-(3-methyl-4-oxo-4,5,6,7-tetrahydro-2H-isoindol-1-yl)-4-phenoxy-N-(1,3-thiazol-2-yl)benzamide] | 1.07 | 22.2 |
| Cc1[nH]c(-c2cc(NC(=O)c3ccc[nH]3)ccc2Oc2ccc(F)cc2F)c2c1C(=O)CCC2 [Example 51, N-[4-(2,4-difluorophenoxy)-3-(3-methyl-4-oxo-4,5,6,7-tetrahydro-2H-isoindol-1-yl)phenyl]-1H-pyrrole-2-carboxamide] | 0.164 | 0.943 |
| Cc1[nH]c(-c2ccc(Cl)cc2)c2c1C(=O)CCC2 [Example 13, 1-(4-chlorophenyl)-3-methyl-2,5,6,7-tetrahydro-4H-isoindol-4-one] | 7.29 | 22.2 |
| COc1cccc(-c2[nH]c(C)c3c2CCCC3=O)c1 [Example 20, 1-(3-methoxyphenyl)-3-methyl-2,5,6,7-tetrahydro-4H-isoindol-4-one] | 1.77 | 4.49 |
| Cc1[nH]c(-c2cc(NS(C)(=O)=O)ccc2Oc2ccc(F)cc2F)c2c1C(=O)CCC2 [Example 46, N-[4-(2,4-difluorophenoxy)-3-(3-methyl-4-oxo-4,5,6,7-tetrahydro-2H-isoindol-1-yl)phenyl]methanesulfonamide] | 0.014 | 0.052 |
| Cc1[nH]c(-c2cccc3cc[nH]c23)c2c1C(=O)CCC2 [Example 22, 1-(1H-indol-7-yl)-3-methyl-2,5,6,7-tetrahydro-4H-isoindol-4-one] | 2.47 | 8.21 |
| Cc1[nH]c(-c2ccccc2OCc2cccc3cccnc23)c2c1C(=O)CCC2 [Example 35, 3-methyl-1-[2-(quinolin-8-ylmethoxy)phenyl]-2,5,6,7-tetrahydro-4H-isoindol-4-one] | 9.14 | 11 |
| Cc1[nH]c(-c2ccccc2O)c2c1C(=O)CCC2 [Example 28, 1-(2-hydroxyphenyl)-3-methyl-2,5,6,7-tetrahydro-4H-isoindol-4-one] | 5.31 | 15.1 |
| Cc1[nH]c(-c2ccccc2Oc2ccccc2)c2c1C(=O)CCC2 [Example 2, 3-methyl-1-(2-phenoxyphenyl)-2,5,6,7-tetrahydro-4H-isoindol-4-one] | 0.255 | 0.504 |
| Cc1[nH]c(-c2cc(NS(C)(=O)=O)ccc2Oc2ccccc2)c2c1C(=O)CC(c1ccccc1)C2 (centres unmarked) [Example 72, N-[3-(3-methyl-4-oxo-6-phenyl-4,5,6,7-tetrahydro-2H-isoindol-1-yl)-4-phenoxyphenyl]methanesulfonamide] | 7.28 | 22.2 |
| Cc1[nH]c(-c2ccccc2OCc2ccccc2)c2c1C(=O)CC(C)(C)C2 [Example 62, 1-[2-(benzyloxy)phenyl]-3,6,6-trimethyl-2,5,6,7-tetrahydro-4H-isoindol-4-one] | 1.5 | 1.75 |
| COc1ccccc1-c1[nH]c(C)c2c1CCCC2=O [Example 6, 1-(2-methoxyphenyl)-3-methyl-2,5,6,7-tetrahydro-4H-isoindol-4-one] | 2.7 | 9.97 |
| Cc1[nH]c(-c2ccccc2OCc2cccc3ccsc23)c2c1C(=O)CCC2 [Example 36, 1-[2-(1-benzothiophen-7-ylmethoxy)phenyl]-3-methyl-2,5,6,7-tetrahydro-4H-isoindol-4-one] | 8.83 | 9.73 |
| COC(=O)c1ccc(Oc2ccccc2)c(-c2[nH]c(C)c3c2CCCC3=O)c1 [Example 53, methyl 3-(3-methyl-4-oxo-4,5,6,7-tetrahydro-2H-isoindol-1-yl)-4-phenoxybenzoate] | 0.927 | 3.67 |
| Cc1ccc(-c2[nH]c(C)c3c2CCCC3=O)cc1C [Example 12, 1-(3,4-dimethylphenyl)-3-methyl-2,5,6,7-tetrahydro-4H-isoindol-4-one] | 2.86 | 10.4 |
